From patent publication US20230151025A1, “SUBSTITUTED THIAZOLOPYRIDINES, SALTS THEREOF AND THEIR USE AS HERBICIDALLY ACTIVE SUBSTANCES” (Bayer Aktiengesellschaft, priority 2020, published 2023)

Key:
Assay type in all cases: in vivo
[1] = tested on: Alopecurus myosuroides (ALOMY); assay: Herbicidal pre-emergence action (A), 1280 g/ha; details: visual grading after ca. 3 weeks vs untreated controls, 100% = plants have died off, 0% = as control plants
Summary of the method: (§1)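 Pre-emergence greenhouse test: seeds sown in sandy loam pots, WP or EC formulations sprayed onto covering soil as aqueous suspension/emulsion with 0.5% additive at 600 l water/ha. Damage graded visually after ca. 3 weeks versus untreated controls, 0% = as control, 100% = plants dead.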

[2] = tested on: Amaranthus retroflexus (AMARE); assay: Herbicidal pre-emergence action (A), 1280 g/ha; details: visual grading after ca. 3 weeks vs untreated controls
Summary of the method: as §1

[3] = tested on: Digitaria sanguinalis (DIGSA); assay: Herbicidal pre-emergence action (A), 1280 g/ha; details: visual grading after ca. 3 weeks vs untreated controls, 100% = plants have died off, 0% = as control plants
Summary of the method: as §1

[4] = tested on: Echinochloa crus-galli (ECHCG); assay: Herbicidal pre-emergence action (A), 1280 g/ha; details: visual grading after ca. 3 weeks vs untreated controls, 100% = plants have died off, 0% = as control plants
Summary of the method: as §1

[5] = tested on: Kochia scoparia (KCHSC; Bassia scoparia); assay: Herbicidal pre-emergence action (A), 1280 g/ha; details: visual grading after ca. 3 weeks vs untreated controls
Summary of the method: as §1

[6] = tested on: Lolium rigidum (LOLRI); assay: Herbicidal pre-emergence action (A), 1280 g/ha; details: visual grading after ca. 3 weeks vs untreated controls, 100% = plants have died off, 0% = as control plants
Summary of the method: as §1

[7] = tested on: Matricaria inodora (MATIN); assay: Herbicidal pre-emergence action (A), 1280 g/ha; details: visual grading after ca. 3 weeks vs untreated controls
Summary of the method: as §1

[8] = tested on: Poa annua (POAAN); assay: Herbicidal pre-emergence action (A), 1280 g/ha; details: visual grading after ca. 3 weeks vs untreated controls, 100% = plants have died off, 0% = as control plants
Summary of the method: as §1

[9] = tested on: Setaria viridis (SETVI); assay: Herbicidal pre-emergence action (A), 1280 g/ha; details: visual grading after ca. 3 weeks vs untreated controls
Summary of the method: as §1

[10] = tested on: Stellaria media (STEME); assay: Herbicidal pre-emergence action (A), 1280 g/ha; details: visual grading after ca. 3 weeks vs untreated controls
Summary of the method: as §1

[11] = tested on: Veronica persica (VERPE); assay: Herbicidal pre-emergence action (A), 1280 g/ha; details: visual grading after ca. 3 weeks vs untreated controls
Summary of the method: as §1

[12] = tested on: Alopecurus myosuroides (ALOMY); assay: Herbicidal pre-emergence action (C), 320 g/ha; details: ca. 3 weeks
Summary of the method: (§2)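 Seeds sown in sandy loam and covered with soil; compounds formulated as WP or EC were sprayed onto the covering soil as aqueous suspension/emulsion with 0.5% additive at 600 l water/ha. Pots kept in greenhouse; damage graded visually after ca. 3 weeks versus untreated controls (0% = as control, 100% = plants dead).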

[13] = tested on: Amaranthus retroflexus (AMARE); assay: Herbicidal pre-emergence action (C), 320 g/ha; details: ca. 3 weeks
Summary of the method: as §2

[14] = tested on: Echinochloa crus-galli (ECHCG); assay: Herbicidal pre-emergence action (C), 320 g/ha; details: ca. 3 weeks
Summary of the method: as §2

[15] = tested on: Lolium rigidum (LOLRI); assay: Herbicidal pre-emergence action (C), 320 g/ha; details: ca. 3 weeks
Summary of the method: as §2

[16] = tested on: Setaria viridis (SETVI); assay: Herbicidal pre-emergence action (C), 320 g/ha; details: ca. 3 weeks
Summary of the method: as §2

[17] = tested on: Veronica persica (VERPE); assay: Herbicidal pre-emergence action (C), 320 g/ha; details: ca. 3 weeks
Summary of the method: as §2

[18] = tested on: Digitaria sanguinalis (DIGSA); assay: Herbicidal pre-emergence action (C), 320 g/ha; details: ca. 3 weeks
Summary of the method: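 Weed and crop seeds sown in sandy loam; WP or EC formulations applied pre-emergence to the soil surface as aqueous suspension/emulsion with 0.5% additive at 600 l water/ha. Greenhouse-grown under optimum conditions; damage visually scored after ca. 3 weeks versus untreated controls (0% = as control, 100% = plants dead).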

[19] = tested on: Alopecurus myosuroides (ALOMY); assay: Herbicidal post-emergence action (D), 320 g/ha; details: ca. 3 weeks
Summary of the method: (§3)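 Post-emergence greenhouse spray of WP or EC formulations plus 0.5% additive at 600 l water/ha onto single-leaf-stage plants, 2–3 weeks after sowing in sandy loam. About 3 weeks later, effect was rated visually against untreated controls as % herbicidal effect, where 0% means like control and 100% means plants dead.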

[20] = tested on: Amaranthus retroflexus (AMARE); assay: Herbicidal post-emergence action (D), 320 g/ha; details: ca. 3 weeks
Summary of the method: as §3

[21] = tested on: Veronica persica (VERPE); assay: Herbicidal post-emergence action (D), 320 g/ha; details: ca. 3 weeks
Summary of the method: as §3

[22] = tested on: Polygonum convolvulus (POLCO); assay: Herbicidal post-emergence action (D), 320 g/ha; details: ca. 3 weeks
Summary of the method: as §3

[23] = tested on: Echinochloa crus-galli (ECHCG); assay: Herbicidal post-emergence action (D), 320 g/ha; details: ca. 3 weeks
Summary of the method: as §3

[24] = tested on: Abutilon theophrasti (ABUTH); assay: Herbicidal pre-emergence action (A), 1280 g/ha; details: visual grading after ca. 3 weeks vs untreated controls, 100% = plants have died off, 0% = as control plants
Summary of the method: as §1

| Compound | ALOMY, herbicidal effect in percent (%) [1] | herbicidal effect AMARE [2] | DIGSA, herbicidal effect in percent (%) [3] | ECHCG, herbicidal effect in percent (%) [4] | herbicidal effect KCHSC [5] | LOLRI, herbicidal effect in percent (%) [6] | herbicidal effect MATIN [7] | POAAN, herbicidal effect in percent (%) [8] | herbicidal effect SETVI [9] | herbicidal effect STEME [10] | herbicidal effect VERPE [11] | herbicidal effect ALOMY [12] | herbicidal effect AMARE [13] | herbicidal effect ECHCG [14] | herbicidal effect LOLRI [15] | herbicidal effect SETVI [16] | herbicidal effect VERPE [17] | herbicidal effect DIGSA [18] | herbicidal effect ALOMY [19] | herbicidal effect VERPE [21] | other results |
| --- | --- | --- | --- | --- | --- | --- | --- | --- | --- | --- | --- | --- | --- | --- | --- | --- | --- | --- | --- | --- | --- |
| Cc1cc2scnc2nc1-c1cccc(F)c1 [Example I-003, 5-(3-fluorophenyl)-6-methyl-thiazolo[4,5-b]pyridine] | 90% | 90% | 100% | 100% | 100% | 100% | 90% | 100% | 100% | 90% | 90% | 100% | 80% | 100% | 100% | 100% | 90% | 100% | 90% | 90% | herbicidal effect AMARE [20]: 80% |
| CCc1cc2scnc2nc1-c1ccc(F)cc1F [Example I-030] | 100% | 90% | 90% | 100% | 100% | 100% | 100% | 100% | 100% | 90% | 100% | 100% | 90% | 100% | 100% | 100% | 90% | 100% | 80% | 90% | herbicidal effect POLCO [22]: 90% |
| Fc1ccccc1-c1ccc2scnc2n1 [Example I-036, 5-(2-fluorophenyl)thiazolo[4,5-b]pyridine] | – | 90% | – | 100% | – | 100% | 90% | 100% | 100% | 90% | – | 100% | 100% | 100% | 100% | 100% | 90% | 100% | – | – | herbicidal effect ECHCG [23]: 80%; herbicidal effect POLCO [22]: 80% |
| CCc1cc2scnc2nc1-c1ccccc1C [Example I-093] | 100% | 90% | 100% | 90% | 100% | 100% | 100% | 100% | 100% | 100% | 100% | 100% | 90% | 100% | 100% | 100% | 90% | 100% | 90% | 90% | ABUTH, herbicidal effect in percent (%) [24]: 90%; herbicidal effect AMARE [20]: 90% |
